What is called Kp is tissue or fluid exposure divided by exposure in the circulation.

Common to all, as to format: ADME, organism-based
Series [1] is described as follows: Drug level in HIV-infected pregnant woman amniotic fluid at 1250 mg, po BID by HPLC/UV analysis. To be noted: human, in vivo.
Series [2] in a line: Drug level in HIV-infected pregnant woman cord blood plasma at 1250 mg, po BID by HPLC/UV analysis. To be noted: human, in vivo.
Series [3] in a line: Drug level in HIV-infected pregnant woman maternal blood plasma at 1250 mg, po BID by HPLC/UV analysis. To be noted: human, in vivo.
The nature of series [4]: Ratio of drug level in HIV-infected pregnant woman amniotic fluid to maternal blood plasma at 1250 mg, po BID by HPLC/UV analysis. To be noted: female, human.
Series [5] in a line: Ratio of drug level in HIV-infected pregnant woman cord blood plasma to maternal blood plasma at 1250 mg, po BID by HPLC/UV analysis. To be noted: female, human.
Series [6] can be described thus: Drug level in HIV-infected pregnant woman cord blood plasma at 200 mg, po BID by HPLC/UV analysis. To be noted: human, in vivo.
Series [7] is described as follows: Drug level in HIV-infected pregnant woman amniotic fluid at 200 mg, po BID by HPLC/UV analysis. To be noted: human, in vivo.
The nature of series [8]: Ratio of drug level in HIV-infected pregnant woman amniotic fluid to maternal blood plasma at 200 mg, po BID by HPLC/UV analysis. To be noted: female, human.
The nature of series [9]: Ratio of drug level in HIV-infected pregnant woman cord blood plasma to maternal blood plasma at 200 mg, po BID by HPLC/UV analysis. To be noted: female, human.
A short description of series [10]: Drug level in HIV-infected pregnant woman maternal blood plasma at 200 mg, po BID by HPLC/UV analysis. To be noted: human, in vivo.
Series [11] in a line: Drug level in HIV-infected pregnant woman cord blood plasma at 400 mg, po BID by HPLC/UV analysis. To be noted: human, in vivo.
A short description of series [12]: Drug level in HIV-infected pregnant woman maternal blood plasma at 400 mg, po BID by HPLC/UV analysis. To be noted: human, in vivo.
Series [13] is described as follows: Drug level in HIV-infected pregnant woman amniotic fluid at 400 mg, po BID by HPLC/UV analysis. To be noted: human, in vivo.
The nature of series [14]: Ratio of drug level in HIV-infected pregnant woman amniotic fluid to maternal blood plasma at 100 mg, po BID by HPLC/UV analysis. To be noted: female, human.
The nature of series [15]: Drug level in HIV-infected pregnant woman maternal blood plasma at 100 mg, po BID by HPLC/UV analysis. To be noted: human, in vivo.
The nature of series [16]: Drug level in HIV-infected pregnant woman cord blood plasma at 100 mg, po BID by HPLC/UV analysis. To be noted: human, in vivo.
The nature of series [17]: Drug level in HIV-infected pregnant woman amniotic fluid at 100 mg, po BID by HPLC/UV analysis. To be noted: human, in vivo.
The nature of series [18]: Ratio of drug level in HIV-infected pregnant woman cord blood plasma to maternal blood plasma at 100 mg, po BID by HPLC/UV analysis. To be noted: female, human.
A short description of series [19]: Drug level in HIV-infected pregnant woman amniotic fluid at 150 mg, po BID by LC/MS/MS analysis. To be noted: human, in vivo.
Series [20] is described as follows: Drug level in HIV-infected pregnant woman maternal blood plasma at 150 mg, po BID by LC/MS/MS analysis. To be noted: human, in vivo.
A short description of series [21]: Drug level in HIV-infected pregnant woman cord blood plasma at 150 mg, po BID by LC/MS/MS analysis. To be noted: human, in vivo.
Series [22] can be described thus: Drug level in HIV-infected pregnant woman maternal blood plasma at 300 mg, po BID by LC/MS/MS analysis. To be noted: human, in vivo.
Series [23] in a line: Drug level in HIV-infected pregnant woman cord blood plasma at 300 mg, po BID by LC/MS/MS analysis. To be noted: human, in vivo.
Series [24] is described as follows: Drug level in HIV-infected pregnant woman amniotic fluid at 300 mg, po BID by LC/MS/MS analysis. To be noted: human, in vivo.
The nature of series [25]: Drug level in HIV-infected pregnant woman cord blood plasma at 300 mg, po QD by LC/MS/MS analysis. To be noted: human, in vivo.
A short description of series [26]: Ratio of drug level in HIV-infected pregnant woman cord blood plasma to maternal blood plasma at 300 mg, po QD by LC/MS/MS analysis. To be noted: female, human.
A short description of series [27]: Ratio of drug level in HIV-infected pregnant woman amniotic fluid to maternal blood plasma at 300 mg, po QD by LC/MS/MS analysis. To be noted: female, human.
Series [28] in a line: Drug level in HIV-infected pregnant woman maternal blood plasma at 300 mg, po QD by LC/MS/MS analysis. To be noted: human, in vivo.
Series [29] is described as follows: Drug level in HIV-infected pregnant woman amniotic fluid at 300 mg, po QD by LC/MS/MS analysis. To be noted: human, in vivo.

Take `Cc1c(O)cccc1C(=O)N[C@@H](CSc1ccccc1)[C@H](O)CN1C[C@H]2CCCC[C@H]2C[C@H]1C(=O)NC(C)(C)C`: the Drug uptake in series [1] was 12 ng/mL; in series [2], 25 ng/mL; in series [3], 65 ng/mL. For the same compound, the values for the Kp in [4] and in series [5] were 1 and 0.49, respectively.
`Cc1ccnc2c1NC(=O)c1cccnc1N2C1CC1` [NEVIRAPINE]: the figures for the Drug uptake in series [6], in series [7] and in series [10] were 1538 ng/mL, 1385 ng/mL and 2595 ng/mL, respectively. For the same compound, the Kp in series [8] is 0.53; in [9], 0.59.
`Cc1cccc(C)c1OCC(=O)N[C@@H](Cc1ccccc1)[C@@H](O)C[C@H](Cc1ccccc1)NC(=O)[C@H](C(C)C)N1CCCNC1=O` [LOPINAVIR]: the Drug uptake in series [11] came to 80 ng/mL; in [12], 3451 ng/mL; in series [13], 60 ng/mL.
Turning to `CC(C)c1nc(CN(C)C(=O)N[C@H](C(=O)N[C@@H](Cc2ccccc2)C[C@H](O)[C@H](Cc2ccccc2)NC(=O)OCc2cncs2)C(C)C)cs1` [RITONAVIR], the Kp in [14] came to 0.02; in [18] it was 0.55. The Drug uptake was determined as 256 ng/mL in [15], 20 ng/mL in series [16] and 12 ng/mL in series [17].
Consider `Nc1ccn([C@@H]2CS[C@H](CO)O2)c(=O)n1` [LAMIVUDINE], for which the figures for the Drug uptake in series [19], in [20] and in series [21] were 931 ng/mL, 271 ng/mL and 216 ng/mL, respectively.
On to `Cc1cn([C@H]2C[C@H](N=[N+]=[N-])[C@@H](CO)O2)c(=O)[nH]c1=O` [ZIDOVUDINE], for which the figures for the Drug uptake in series [22], in series [23] and in [24] were 557 ng/mL, 605 ng/mL and 2249 ng/mL, respectively.
With `C[C@H](Cn1cnc2c(N)ncnc21)OCP(=O)(O)O` [TENOFOVIR ANHYDROUS], the figures for the Drug uptake in series [25], in series [28] and in [29] were 30 ng/mL, 5 ng/mL and 791 ng/mL, respectively. Moreover, the Kp in series [26] was found to be 6; in series [27], 158.

The values are drawn from ChEMBL document CHEMBL1649445, “Genital tract, cord blood, and amniotic fluid exposures of seven antiretroviral drugs during and after pregnancy in human immunodeficiency virus type 1-infected women” (Antimicrob Agents Chemother, 2009).
